One assay concerns E. Coli ATCC 25922. As to the method: (§1) SEQ ID NO: 1 stocks were made at 5.12 mg/mL in water adjusted to pH of 5.0 with 1% glacial acetic acid.
(§2) The test organisms (Table 7) consisted of clinical isolates from the Micromyx (MMX) repository, a reference isolate from the American Type Culture Collection (ATCC, Manassas, VA) and the Centers for Disease Control (CDC, Atlanta GA). Upon initial receipt, the isolates were streaked under suitable conditions onto agar medium appropriate to each organism. The organisms were incubated for 18-24 hr at 35° C. in ambient atmosphere. Colonies harvested from these growth plates were resuspended in the appropriate medium containing a cryoprotectant. Aliquots of each suspension were then stored frozen at −80° C. Prior to testing, all organisms were cultured onto trypticase soy agar containing 5% sheep blood. The agar plates were incubated as described above.
(§3) The Test media used for MIC and FIC were testing were cation-adjusted Mueller-Hinton broth (CAMHB) and Roswell Park Memorial Institute (RPMI-1640), buffered with 3-(N-morpholino)propanesulfonic acid (MOPS). Each test media was supplemented with 0.002% Tween-80 (P-80) prior to testing.
(§4) MIC assay plates were prepared for broth microdilution in accordance with guidelines from the Clinical and Laboratory Standards Institute (CLSI); automated liquid handlers (Biomek 3000 and Biomek FX) and multi-channel pipettes were used to conduct serial dilutions and liquid transfers. MIC assay plates were prepared using a 96-well, deep-well microdilution plate that mimicked the layout of the daughter plates.
(§5) For the mother plate, wells across the standard 96-well microdilution plate were filled with 150 μL of sterile saline 0.002% P-80 in columns 2 through 12. […] The Biomek 300 was used to make eleven 2-fold serial dilutions horizontally across each row of the plate from columns 2 through 11. The Biomek FX was then used to transfer 5 μL of the SEQ ID NO: 1 and saline 0.002% P-80 to the daughter plates.
(§6) A standardized inoculum of each organism was prepared per CLSI methods. Suspensions were prepared to equal a 0.5 McFarland standard followed by a 1:10 dilution into test medium. The inocula were dispensed into sterile reservoirs divided by length and the Biomek 3000 was used to inoculate the plates. Daughter plates were placed on the Biomek 3000 work surface in reverse orientation so that inoculation took place from low to high drug concentration. The Biomek 3000 delivered 10 μL of the diluted suspension into each well. These inoculations yielded a final cell concentration in the daughter plates of approximately 5×10^5 CFU/mL in each well. Plates were incubated at 35° C. for 16-20 hr. The microplates were viewed from the bottom using a plate viewer and the MIC was recorded as the lowest concentration of drug that inhibited visible growth of the organism.

For a further assay, the system named is P. aeruginosa ATCC 27853. As to the method: as §1, §2, §3, §4, §5, §6
For a further assay, the system named is P. aeruginosa CDC 0509. As to the method:
as §1, §2, §3, §4, §5, §6

Another assay relates to S. aureus ATCC 29213. As to the method: as §1, §2, §3, §4, §5, §6
In another assay the test system is S. aureus NRS 382. As to the method:
as §1, §2, §3, §4, §5, §6

A further assay deals with S. epidermidis MMX 5129. As to the method:
as §1, §2, §3, §4, §5, §6

The next assay has as its system 5 test isolates. The note with it: PBS and H2O, 1× and 0.5× MIC, all evaluated organisms. As to the method: (§7) Base test media for the TK assay were phosphate-buffered saline (PBS), water, and cation-adjusted Mueller-Hinton broth (CAMHB), all adjusted to pH 7.4 with sodium hydroxide (NaOH) or hydrochloric acid (HCl) and then filter-sterilized.
(§8) Double strength (2×) Dey/Engley neutralizing broth (D/E) was used as a neutralizer for dilution and plating during determination of CFU/mL at each TK assay time point. Track plating was conducted on TSAB for Staphylococcus aureus NRS382 and on TSA without sheep's blood for all other organisms. TSA was used for spread plate enumeration of CFU/mL during a pilot study testing toxicity of D/E to bacteria and neutralization of SEQ ID NO: 1 in D/E.
(§9) Drug stocks of 5120 μg/mL in water at pH 5 were diluted in PBS pH-7.4 to 100× the final concentrations desired for each TK assay and frozen at −20° C. until use.
(§10) The TK test panel was prepared in a 96-well deep well plate, where 890 μL of each test media and 10 μL of 100× drug stocks were added to the appropriate wells. A growth control containing no drug was included, where 10 μl of PBS (pH 7.4) was added in place of drug.
(§11) A cell suspension was prepared from growth of a freshly streaked plate equivalent to the turbidity of a 0.5 McFarland standard in PBS at (pH 7.4). Deep-well test panels prepared as described above were inoculated with 100 μL of the 0.5 McFarland cell suspension, targeting a final inoculum of approximately 1 to 2×10^7 CFU/mL. During the TK assay, the 96 deep-well plate was left on the bench top at room temperature.
(§12) Aliquots of 100 μL were removed from the test panel immediately (0 minutes), and at 2.5, 5, 10, 15, and 30 minutes, and mixed with 100 μL 2×D/E to neutralize the rapid bactericidal activity of SEQ ID NO: 1. Cells were then serially diluted ten-fold in 2× Dey/Engley broth four times yielding a dilution series ranging from 2 to 2×10-4. Ten microliters from each step of the dilution series were track-plated in duplicate on TSA to enumerate viable counts (CFU/mL). Plates were then incubated at 35° C. overnight.
(§13) The resulting colonies were counted, and viable counts (CFU/mL) were determined from the average count of the duplicate plates. The limit of detection (LOD) for the assay was 100 CFU/mL. The LOD reflects the average CFU/ml if just one colony grew from the least diluted sample (DF=2) between the two track plate replicates, where 10 μL had been plated. Log-transformed viable counts (log10 CFU/mL) were then plotted vs. time.

Another assay concerns E. Coli CDC 0451. The note with it: 1× MIC, PBS, without sodium bicarbonate. As for the experimental part:
as §7, §8, §9, §10, §11, §12, §13

The subject of a further assay is S. aureus NRS 384. As to the method:
as §7, §8, §9, §10, §11, §12, §13

Another assay relates to S. epidermidis MMX 8655. The note with it: by […]; 1× MIC; PBS and H2O. As to the method: as §7, §8, §9, §10, §11, §12, §13

Where two headings read alike, the source gives them in different places. Where no end group is shown, it is not given here. A value given as a limit tells only on which side of the number the result lay.

Regarding RRWVRRVRRVWRRVVRVVRRWVRR [SEQ ID NO: 1], the MIC was 4 µg/mL against E. Coli ATCC 25922 (CAMHB); 0.5 µg/mL with E. Coli ATCC 25922 (RPMI); 8 µg/mL with P. aeruginosa ATCC 27853 (CAMHB); 2 µg/mL in the assay on P. aeruginosa ATCC 27853 (RPMI); 8 µg/mL with P. aeruginosa CDC 0509 (CAMHB); 4 µg/mL against P. aeruginosa CDC 0509 (RPMI). The MIC with P. aeruginosa CDC 0509 (stated in FIG. 5 legends (time-kill), printed P. Aeruginosa CDC 0451) is 16 µg/mL; in the assay on S. aureus ATCC 29213 (CAMHB), 4 µg/mL; in the assay with S. aureus ATCC 29213 (RPMI), 0.5 µg/mL; in the assay on S. aureus NRS 382 (RPMI), 0.5 µg/mL; in the assay on S. aureus NRS 382 (stated in FIG. 2 legends (time-kill), printed S. aureus NRS 382), 8 µg/mL; against S. epidermidis MMX 5129 (CAMHB), 1 µg/mL. Also, in the assay on S. epidermidis MMX 5129 (RPMI), the MIC was found to be 0.12 µg/mL. In the assay on 5 test isolates, the log killing result is “Greater than 1 log”. Also, the “killing (log)” value with E. Coli CDC 0451 is listed as above 3. Also, the log-kill is at least 3 log with S. aureus NRS 384 (0 min, 0.5 and 1× MIC in H2O, absence of sodium bicarbonate); around 3 log in the assay with S. aureus NRS 384 (after […], 1× MIC in PBS +/- sodium bicarbonate); at least 3 log in the assay on S. aureus NRS 384 (by […], 0.5 and 1× MIC in H2O, presence of sodium bicarbonate); around 3 log in the assay on S. epidermidis MMX 8655.

(Values after US20240252586A1, “ENGINEERED ANTIMICROBIAL PEPTIDES AND USAGE THEREOF” (priority 2021, published 2024).)
